In patent US20230220331A1, “TEMPORARY TREATMENT MEDIUM, TREATMENT KIT, EMBRYOGENESIS ARREST INHIBITOR, EMBRYOGENESIS ARREST INHIBITORY METHOD, DEVELOPMENTAL ENGINEERING PRODUCT PREPARATION METHOD, TRANSPLANTATION METHOD, THERAPEUTIC METHOD, AND DEVELOPMENTAL ENGINEERING PRODUCT” (priority 2020, published 2023):

Experiments:
[1] = test system: pronuclear stage embryos of F344 rat; assay: Flox rat knock-in by 2STEP electroporation with high concentration ssODN (Treatment Example 6); format: cell-based; details: ssODN 800 ng/μL, 14 transfer pulses
Protocol: 1. At least 3 hours before TAKE, 5 drops of Y-27632-added KSOM AA medium (Y-27632 final concentration 10 μM, an example of the “temporary treatment medium” of this example) were placed on a 35 mm Petri dish and drops covered with paraffin oil.
2. Pronuclear stage embryos were collected, placed in Y-27632-added KSOM AA medium, and cultured for about 30 minutes to 1 hour (temporary treatment).
3. After that, the first TAKE was performed.
4. After TAKE, the embryos were placed in Y-27632-added KSOM AA medium and cultured under 37° C., 5% CO2, and 5% O2 conditions for 30 minutes and more and up to 12 hours (temporary treatment).
5. Then, they were placed in Y-27632-free KSOM AA medium (an example of the “normal medium” of this example), and cultured under 37° C., 5% CO2, and 5% O2 conditions until the second TAKE.
6. The next day, the embryos that had become two cells were separated, and about 20 to 22 hours after egg collection, they were placed in Y-27632-added KSOM AA medium again and cultured for about 30 minutes to 1 hour (temporary treatment).
7. After that, the second TAKE was performed.
8. After the second TAKE, the embryos were placed in Y-27632-added KSOM AA medium and cultured for about 30 minutes to 1 hour (temporary treatment).
9. Then, they were transferred to mR1ECM medium (an example of “normal medium” of this example). […]

[2] = test system: unfrozen pronuclear stage embryo (1 cell) of the inbred rat F344; assay: Genome-edited individuals by unfrozen 1-cell TAKE of F344 (Treatment Example 16); format: cell-based; details: F344 unfrozen 1 cell; for NUMBER OF NEWBORNS: 2× gRNA, 14 pulses, 20% reduction rate; for KO rate (Large deletion) (%): KO individuals / newborns analyzed
Excerpt: Next, in the same manner as in Treatment Example 1 according to Example 1, a knock-out by the electroporation method was also produced in an unfrozen pronuclear stage embryo (1 cell) of the inbred rat F344. The conditions at this time were that the gRNA concentration was twice the specified amount, the pulse was 14 times, and the reduction rate was 20%.

[3] = test system: early embryos of the inbred mouse B6J strain; assay: Recovery of inbred mouse early embryos frozen and thawed multiple times (Treatment Example 15); format: cell-based; details: frozen TWICE
Excerpt: Then, in the same manner as in Treatment Example 9 according to Example 1, it was investigated whether or not the early embryos of the inbred mouse B6J strain, not the normal mice, could recover after frozen and thawed at multiple times.

[4] = test system: Early embryos of the heterologous mouse Mus caroli; assay: ES cell establishment from electroporated early embryos (Treatment Example 4); format: cell-based; details: Mus caroli early embryos cultured in Y-27632 medium, then electroporated
Protocol: 1. Up to 3 hours before TAKE, Y-27632-added mWM medium (Y-27632 final concentration 10 μM, an example of the “temporary treatment medium” of this example), Y-27632-free mWM medium (an example of “normal medium” of this example) were dropped into 35 mm Petri dishes by 5 drops, respectively, to prepare drops covered with paraffin oil.
2. Two-cell stage embryos were collected from the drops or thawed, placed in Y-27632-added mWM medium, and cultured for about 30 minutes to 1 hour (temporary treatment).
3. After that, TAKE was performed.
4. After TAKE, the embryos were placed in Y-27632-added mWM medium and cultured for about 30 minutes to 1 hour (temporary treatment). Then, the embryos were placed in Y-27632-free mWM medium and cultured at 37° C. under 5% CO2 and 5% O2 conditions until transplantation.
5. Then, if necessary, the culture was continued in the Y-27632-free mWM medium to establish ES cells.
When Mus caroli ES cells were knocked out of the Tyr gene by genome editing and a part of them was analyzed, it was shown that NHEJ occurred and heterologous mouse ES cells were established.

[5] = test system: two-cell frozen embryos of heterologous inbred SPR2 mouse; assay: Individual production from frozen eggs of SPR2 (Treatment Example 3); format: cell-based, Mus spretus; details: SPR2 frozen 2-cell embryos thawed, 1 hour in Y-27632 medium
Protocol: 1. Up to 3 hours before TAKE, Y-27632-added mWM medium (Y-27632 final concentration 10 μM, an example of the “temporary treatment medium” of this example), Y-27632-free mWM medium (an example of “normal medium” of this example) were dropped into 35 mm Petri dishes by 5 drops, respectively, to prepare drops covered with paraffin oil. 2. Two-cell stage embryos were collected from the drops or thawed, placed in Y-27632-added mWM medium, and cultured for about 30 minutes to 1 hour (temporary treatment). According to a typical method, in the afternoon when female mice and rats were mated with males with vasoligation and confirmed to be plugged, about 10 each were transplanted into the left and right oviducts or uterus of plug-confirmed mature female mice and rats. In this production example, two-cell frozen embryos of SPR2 were thawed, cultured in a temporary treatment medium containing Y-27632 for 1 hour, and transplanted into the uterus of a pseudopregnant female mouse. […] As a result, frozen embryo-derived individuals (16 transplanted embryos, 6 newborns) were obtained.

[6] = 16 blastocysts transferred to uterus (3.5 days)

In the case of `C[C@@H](N)[C@H]1CC[C@H](C(=O)Nc2ccncc2)CC1` [Y-27632, trans-4-[(1R)-1-Aminoethyl]-N-4-pyrid inylcyclohexanecarboxamide], the “samples developed to blastocysts (PCR AMPLIFICATION)” value ([1]; F344, 2STEP, of 86 samples) is reported as 67, the “Flox (proportion)” value ([1]; F344 blastocysts, 2STEP) is reported as 1/67 and the “NUMBER OF NEWBORNS” value ([2]; 25 TAKE embryos, 1 recipient) is reported as 4. For the same compound, the “Number of KO individuals (large deletion)” value ([2]; 25 TAKE embryos, 1 recipient, 4 newborns analyzed) was 0, the “KO rate (Large deletion) (%)” value ([2]; 25 TAKE embryos) was “(0%)” and the “NUMBER OF NEWBORNS” value ([2]; 75 TAKE embryos, 3 recipients) was 16. For the same compound, the “Number of KO individuals (large deletion)” value ([2]; 75 TAKE embryos, 3 recipients, 13 newborns analyzed) was 7, the “KO rate (Large deletion) (%)” value ([2]; 75 TAKE embryos) was “(53.8%)” and the “NUMBER OF RECOVERIES” value [3] was 24/26. For the same compound, the recoveries % [3] was 92%, the ES cells established [4] was “at a high rate” and the “NUMBER OF BIRTHS FEMALE” value [5, 6] was 4. The “NUMBER OF BIRTHS MALE” value [5, 6] was 2 and the “NUMBER OF BIRTHS TOTAL (newborns)” value ([5]; 16 embryos transferred to uterus (3.5 days)) was 6.
